According to patent publication US20260256794A1, “Oral Dynamine Formulations and Methods Therefor” (Ortho-Nutra, LLC, priority 2023, published 2026):

Columns and labels:
Type in all cases: in vivo, human
[1] = tested on: subjects; test: VAS-Sustained Energy; set-up: VAS-Sustained Energy rating, Mean / VAS-Sustained Energy changes from baseline, Mean Difference ± SE / VAS-Sustained Energy Δ, Mean Difference ± SE / VAS-Sustained Energy area under the curve, Mean Difference ± SE / VAS-Sustained Energy area under the curve, Mean: scale not given here; details: for VAS-Sustained Energy Δ, effect size d / VAS-Sustained Energy Δ from 0 min, Mean / VAS-Sustained Energy Δ, Mean Difference ± SE: females; for VAS-Sustained Energy Δ, effect size d: vs placebo; for VAS-Sustained Energy Δ, Mean Difference ± SE: B vs A (placebo)
Experimental: (§1) The inventors have discovered various compositions and methods of improving various indices of neurological and neuroenergetic functions by administering 100 mg (once daily) dosages of DYNAMINE™ (dosage between 1.0 and 1.4 mg/kg) as described in the following:
(§2) All neuroenergetic tests as listed below were performed and data were collected after 0 and 4 days of assigned supplements (with acute effects also measured at day 4 over 180 minutes):
(§3) All VAS Measurement (Energy, Sustained Energy, Mental Stamina, Ability to Focus, Ability to Concentrate, Motivation to Accomplish Difficult Tasks, Drive, Vigor, Level of Positive Outlook, Mood, Feelings of Well-Being, Tolerate Stress); Day 0: Two tests were completed. The average of both scores was computed and this value was used in all statistical analysis. Day 4 (0 minutes after ingesting dose #4): Two tests were completed. The average of both scores was computed and this value was used in all statistical analysis. Day 4 (60, 120, and 180 minutes after ingesting dose #4): One test was completed at each time point.
(§4) Neuroenergic parameters are inherently subjective, nevertheless significant in human behavior and well-being. To allow for a standardization among different subjects, the following experiments were performed using a visual analog scale using anchor statements (lowest possible/highest possible) in which subjects were asked to rate their subjective experience with respect to the specific neuroenergic parameters tested.
VAS-Sustained Energy: In this subjective test, subjects were asked to rate their personal level of energy on a VAS scale using the prompt of “My level of sustained energy right now is . . . ” (with rating lowest possible to highest possible)”. Results were collected as noted above and Table 6 provides exemplary results for Day 0 versus Day 4 ratings, whereas Table 7 provides exemplary acute results measured at Day 4 over a duration of 180 minutes.

[2] = tested on: subjects; test: VAS-Motivation; set-up: VAS-Motivation rating, Mean / VAS-Motivation changes from baseline, Mean Difference ± SE / VAS-Motivation area under the curve, Mean Difference ± SE / VAS-Motivation area under the curve, Mean: scale not given here
Experimental: as §1, §2, §3, §4
VAS-Motivation: In this subjective test, subjects were asked to rate their personal level of energy on a VAS scale using the prompt of “My motivation to accomplish difficult tasks right now is . . . ” (with rating lowest possible to highest possible)”. Results were collected as noted above and Table 19 provides exemplary results for Day 0 versus Day 4 ratings, whereas Table 20 provides exemplary acute results measured at Day 4 over a duration of 180 minutes.

[3] = tested on: subjects; test: Hemodynamics: diastolic blood pressure; details: for Diastolic blood pressure changes from baseline, Mean Difference ± SE / Diastolic blood pressure changes from baseline, effect size d: between groups (placebo)
Experimental: as §1
Hemodynamics Systolic Blood Pressure, Diastolic Blood Pressure, Heart Rate were taken Pre and Post Stroop Test on Day 0; Pre and Post Stroop Test after 4 Days of Supplementation 0, 60, 120, and 180 minutes after ingestion of 4th dose.
For hemodynamic parameters, systolic blood pressure, diastolic blood pressure, and heart rate were taken pre- and post-Stroop Test on Day 0, and pre- and post-Stroop Test after 4 Days of Supplementation 0, 60, 120, and 180 minutes after ingestion of 4th dose.

[4] = 100 mg once daily, Day 4, 0-180 min
[5] = 100 mg once daily, Day 4, 0-180 min, vs Group A (placebo)
[6] = 100 mg once daily, Day 4, 0 min after dose #4
[7] = 100 mg once daily, Day 4, 60 min-0 min, vs Group A (placebo)
[8] = 100 mg once daily, Day 4, 60 min after dose #4
[9] = 100 mg once daily, Day 4, 120 min-0 min, vs Group A (placebo)
[10] = 100 mg once daily, Day 4, 120 min after dose #4
[11] = 100 mg once daily, Day 4, 180 min-0 min, vs Group A (placebo)
[12] = 100 mg once daily, Day 4, 180 min after dose #4
[13] = 100 mg once daily, Day 4, Δ @ 60 min
[14] = 100 mg once daily, Day 4, Δ @ 120 min
[15] = 100 mg once daily, Day 4, Δ @ 180 min
[16] = 100 mg once daily, Day 4, 60 min-0 min
[17] = 100 mg once daily, Day 4, 120 min-0 min
[18] = 100 mg once daily, Day 4, 180 min-0 min

Q: Which “VAS-Sustained Energy area under the curve, Mean” value [1, 4] does the source give for `COc1nc2c(c(=O)n1C)n(C)c(=O)n2C` [methylliberine, 2-methoxy-1,7,9-trimethylpurine-6,8-dione] here?
A: 1073

Q: And the “VAS-Sustained Energy area under the curve, Mean Difference ± SE” value [1, 5]?
A: 45.2 ± 41.7

Q: What about the “VAS-Sustained Energy area under the curve, effect size d” value [1, 5] of the same compound?
A: −0.13

Q: What about the “VAS-Sustained Energy rating, Mean” value [1, 6] of the same compound?
A: 5.7

Q: What about the “VAS-Sustained Energy changes from baseline, Mean Difference ± SE” value [1, 7] of the same compound?
A: 0.22 ± 0.22

Q: What about the “VAS-Sustained Energy changes from baseline, effect size d” value [1, 7] of the same compound?
A: 0.27

Q: And the “VAS-Sustained Energy rating, Mean” value [1, 8]?
A: 6.2

Q: And the “VAS-Sustained Energy changes from baseline, Mean Difference ± SE” value [1, 9]?
A: −0.11 ± 0.25

Q: And the “VAS-Sustained Energy changes from baseline, effect size d” value [1, 9]?
A: −0.11

Q: What about the “VAS-Sustained Energy rating, Mean” value [1, 10] of the same compound?
A: 6.3

Q: And the “VAS-Sustained Energy changes from baseline, Mean Difference ± SE” value [1, 11]?
A: 0.24 ± 0.23

Q: And the “VAS-Sustained Energy changes from baseline, effect size d” value [1, 11]?
A: 0.24

Q: What about the “VAS-Sustained Energy rating, Mean” value [1, 12] of the same compound?
A: 6.5

Q: What about the “VAS-Sustained Energy rating, Mean” value ([1]; Day 0 (before supplementation)) of the same compound?
A: 5.6

Q: And the “VAS-Sustained Energy Δ, effect size d” value ([1]; 100 mg once daily, Day 4, 60 min)?
A: 0.86

Q: What about the “VAS-Sustained Energy Δ, effect size d” value ([1]; 100 mg once daily, Day 4, 120 min) of the same compound?
A: 0.62

Q: What about the “VAS-Sustained Energy Δ, effect size d” value ([1]; 100 mg once daily, Day 4, 120 min, listed as B) of the same compound?
A: 0.03

Q: What about the “VAS-Sustained Energy Δ, effect size d” value ([1]; 100 mg once daily, Day 4, 180 min) of the same compound?
A: 0.62

Q: What about the “VAS-Sustained Energy Δ from 0 min, Mean” value [1, 13] of the same compound?
A: 0.85

Q: What about the “VAS-Sustained Energy Δ, Mean Difference ± SE” value [1, 13] of the same compound?
A: 0.74 ± 0.29

Q: What about the “VAS-Sustained Energy Δ from 0 min, Mean” value [1, 14] of the same compound?
A: 0.88

Q: What about the “VAS-Sustained Energy Δ, Mean Difference ± SE” value [1, 14] of the same compound?
A: 0.02 ± 0.35

Q: And the “VAS-Sustained Energy Δ from 0 min, Mean” value [1, 15]?
A: 1.28

Q: What about the “VAS-Sustained Energy Δ, Mean Difference ± SE” value [1, 15] of the same compound?
A: 0.72 ± 0.31

Q: What about the “VAS-Motivation area under the curve, Mean” value [2, 4] of the same compound?
A: 1113

Q: And the “VAS-Motivation area under the curve, Mean Difference ± SE” value [2, 5]?
A: 36.8 ± 37.4

Q: And the “VAS-Motivation area under the curve, effect size d” value [2, 5]?
A: 0.11

Q: And the “VAS-Motivation rating, Mean” value [2, 6]?
A: 5.7

Q: What about the “VAS-Motivation changes from baseline, Mean Difference ± SE” value [2, 7] of the same compound?
A: −0.07 ± 0.27

Q: What about the “VAS-Motivation changes from baseline, effect size d” value [2, 7] of the same compound?
A: −0.08

Q: And the “VAS-Motivation rating, Mean” value [2, 8]?
A: 6.2

Q: What about the “VAS-Motivation changes from baseline, Mean Difference ± SE” value [2, 9] of the same compound?
A: −0.25 ± 0.27

Q: And the “VAS-Motivation changes from baseline, effect size d” value [2, 9]?
A: −0.25

Q: And the “VAS-Motivation rating, Mean” value [2, 10]?
A: 6.2

Q: What about the “VAS-Motivation changes from baseline, Mean Difference ± SE” value [2, 11] of the same compound?
A: 0.53 ± 0.27

Q: What about the “VAS-Motivation changes from baseline, effect size d” value [2, 11] of the same compound?
A: 0.50

Q: And the “VAS-Motivation rating, Mean” value [2, 12]?
A: 6.6

Q: What about the “VAS-Motivation rating, Mean” value ([2]; Day 0 (before supplementation)) of the same compound?
A: 5.8

Q: And the “Diastolic blood pressure, Mean” value ([3]; 100 mg once daily, Day 4, 0 min after 4th dose)?
A: 77.3 mm Hg

Q: And the “Diastolic blood pressure changes from baseline, Mean Difference ± SE” value [3, 16]?
A: 1.28 ± 1.65 mm Hg

Q: What about the “Diastolic blood pressure changes from baseline, effect size d” value [3, 16] of the same compound?
A: −0.21

Q: And the “Diastolic blood pressure, Mean” value ([3]; 100 mg once daily, Day 4, 60 min after 4th dose)?
A: 76.9 mm Hg

Q: What about the “Diastolic blood pressure changes from baseline, Mean Difference ± SE” value [3, 17] of the same compound?
A: 5.84 ± 1.55 mm Hg

Q: And the “Diastolic blood pressure changes from baseline, effect size d” value [3, 17]?
A: −0.84

Q: And the “Diastolic blood pressure, Mean” value ([3]; 100 mg once daily, Day 4, 120 min after 4th dose)?
A: 75.6 mm Hg

Q: And the “Diastolic blood pressure changes from baseline, Mean Difference ± SE” value [3, 18]?
A: 2.64 ± 1.66 mm Hg

Q: What about the “Diastolic blood pressure changes from baseline, effect size d” value [3, 18] of the same compound?
A: −0.42

Q: And the “Diastolic blood pressure, Mean” value ([3]; 100 mg once daily, Day 4, 180 min after 4th dose)?
A: 77.2 mm Hg

Q: What about the “Diastolic blood pressure, Mean” value ([3]; Day 0 (before supplementation)) of the same compound?
A: 76.6 mm Hg
